Experimental data published in US20200270576A1, “Ex Vivo Maintenance and Expansion of Stem Cells” (priority 2017, published 2020).

Legend:
[1] = system: HSCs; experiment: TMI fluorescence (unfolded protein abundance) in cultured HSCs; assay type: cell-based, mouse; conditions: 18 hours in culture
Protocol: FIG. 15 depicts that addition of 17-AAG to culture medium reduced TMI fluorescence (unfolded protein abundance) within cultured HSCs (18 hour cultures shown).
Hsf1 promoted protein homeostasis maintenance in cultured HSCs (FIG. 13B), and 17-AAG promoted Hsf1 accumulation in cultured HSCs (FIG. 14). We thus investigated whether addition of 17-AAG to culture medium could promote protein homeostasis maintenance in HSCs. To test this, HSCs were cultured in the presence or absence (vehicle only; DMSO) of 17-AAG. After 18 hours in culture, we assessed protein homeostasis by quantifying unfolded protein abundance based on TMI fluorescence.

[2] = system: HSCs; experiment: Competitive transplantation of HSCs cultured 10 days, with serial transplantation; assay type: cell-based, murine
Description: FIG. 16A-B depict that HSC functionality is maintained and expanded in vitro by interventions that can induce/activate Hsf1. FIG. 16A depicts donor cell engraftment 16 weeks after transplantation of 10 HSCs cultured for 10 days in the presence or absence of an HSP90 inhibitor (17-AAG) or TRiC inhibitor (HSF1A) or from 10 freshly isolated HSCs. Cells were transplanted with 2×10^5 freshly isolated congenic bone marrow cells (n=3 independent experiments with 3-5 recipients/condition/experiment). […] Addition of either 17-AAG or HSF1A increased the reconstituting potential of cultured HSCs as compared to both control cultured and freshly isolated HSCs.
To test if HSCs depend on Hsf1 for their maintenance in vitro, we conditionally deleted Hsf1 from HSCs, cultured them for 10 days and assessed their long-term multilineage reconstituting activity in competitive transplantation assays. The assay for testing HSC function is to assess their capacity to give long-term (16+ week) multilineage (B cell, T cell and myeloid cell) reconstitution of the blood system of an irradiated transplant recipient. A competitive transplantation assay provides a quantitative readout of HSC regenerative activity.
Modest declines in proteostasis impair HSC maintenance in vivo. […] This raises the possibility that increasing Hsf1 activity could promote HSC maintenance in vitro by enhancing proteostasis capacity. To test if HSP90 inhibitors or TRiC inhibitors promote HSC maintenance in vitro, purified HSCs were sorted from young adult murine bone marrow (CD45.1^+) into 96-well plates (10/well) containing our HSC medium supplemented with 17-AAG or HSF1A. HSCs were cultured for 10 days and competitively transplanted with 2×10^5 freshly isolated congenic bone marrow cells (CD45.2^+) into irradiated mice (CD45.2^+). Recipient mice were bled monthly (for 4 months) to assess levels of donor-derived CD45.1^+ hematopoietic cells. Self-renewal capacity of HSCs was assessed by serially transplanting hematopoietic cells from the primary recipients into secondary irradiated recipients (3×10^6 cells/recipient). […] Similar results are expected for other HSP90 or TRiC inhibitors.
To test if HSP90 inhibitors or TRiC inhibitors enable HSC expansion in vitro, purified HSCs were sorted from young adult bone marrow (CD45.1^+) into 96-well plates (10/well) containing HSC medium supplemented with 17-AAG or HSF1A. HSCs were cultured for 10 days and competitively transplanted with 2×10^5 freshly isolated congenic bone marrow cells (CD45.2^+) into irradiated mice (CD45.2^+). At the same time, 10 freshly isolated HSCs were transplanted with 2×10^5 freshly isolated congenic bone marrow cells into irradiated mice. Recipient mice were bled monthly (for 4 months) to assess levels of donor-derived CD45.1^+ hematopoietic cells. Self-renewal capacity of HSCs was assessed by serially transplanting hematopoietic cells (3×10^6 cells/recipient) into secondary irradiated recipients. […] Similar results are expected for other HSP90 or TRiC inhibitors.

[3] = system: Hsf1; experiment: Hsf1 expression and localization by immunofluorescence in cultured HSCs; assay type: cell-based, mouse; conditions: 10 days culture; 17-AAG 5 nM, HSF1A 8 uM final concentration
Description: FIG. 14 depicts representative immunofluorescence staining of HSCs cultured for 10 days in the presence or absence of 17-AAG or HSF1A. Addition of 17-AAG or HSF1A to culture medium increased Hsf1 accumulation in the nucleus of cultured HSCs. Hsf1-deficient HSCs and cells stained without primary antibody (Neg Con) are shown as controls.
Since Hsf1 promoted HSC maintenance and protein homeostasis in vitro (FIG. 13), we investigated whether increasing Hsf1 expression or activity would further enhance HSC maintenance. […] Hsf1 can become active as a transcription factor when it translocates to the nucleus. We thus tested whether inhibitors of HSP90 or TRiC would promote Hsf1 accumulation in the nucleus of cultured HSCs by culturing HSCs for 10 days in the presence or absence of 17-AAG (HSP90 inhibitor; 5 nM final concentration) or HSF1A (TRiC inhibitor; 8 uM final concentration), and assessed Hsf1 expression and localization by immunofluorescence.

[4] = system: HSCs; experiment: Retroviral (MSCV-IRES-GFP) transduction of HSCs, GFP in colonies; assay type: cell-based, mouse; conditions: medium supplemented with 17-AAG; colonies assessed ten days after plating
Protocol: FIG. 19 depicts that addition of 17-AAG to culture medium supported highly efficient genetic modification of HSCs. The frequency of HSCs that were transduced with a GFP encoding retrovirus in culture is shown.
We tested whether the presence of HSP90 inhibitors in cell culture medium permitted efficient genetic modification of HSCs. Purified HSCs were cultured overnight in medium supplemented with 17-AAG. Retroviral supernatant (containing retrovirus encoding MSCV-IRES-GFP) was added two times (two hours apart), and the cells were cultured for an additional 24 hours. After culture, the cells were plated in methylcellulose semi-solid medium supplemented with hematopoietic cytokines. Ten days later, individual colonies (derived from single HSCs) were assessed for GFP expression by flow cytometry. […] We expect this will also be true for other HSP90 inhibitors, TRiC inhibitors and Hsf1 agonists. In addition, we expect that these agents will also be compatible for genetic modification of stem cells by other technologies (in addition to retrovirus), including but not limited to lentivirus, CRISPR and other genetic modification or editing technologies.

[5] = system: CD150+CD48-LSK HSCs; experiment: Frequency of CD150+CD48-LSK cells in 10-day HSC cultures; assay type: cell-based, mouse; conditions: 10 HSCs/well, 10 days culture
Protocol: FIG. 18 depicts that addition of 17-AAG to culture medium increased the frequency of CD150^+CD48^−LSK HSCs in 10-day HSC cultures as compared to controls.
To further test if HSP90 inhibitors promote HSC maintenance/expansion, we cultured purified HSCs (10/well) for 10 days in the presence or absence of 17-AAG, and assessed the frequency of CD150^+CD48^−LSK cells in culture. CD150^+CD48^−LSK cells were about ˜4-fold enriched when 17-AAG was added to the culture medium (FIG. 18). […] Similar results are expected for other HSP90 inhibitors, TRiC inhibitors and agonists of Hsf1.

[6] = system: Hsf1-deficient and control HSCs; experiment: Competitive transplantation of cultured wild-type and Hsf1-deficient HSCs; assay type: cell-based, mice; conditions: 12 weeks after transplantation
Description: FIG. 17 depicts that Hsf1 is required for 17-AAG and HSF1A to enhance HSC maintenance and expansion in vitro. Donor cell engraftment 12 weeks after transplantation of 10 wild-type and Hsf1-deficient HSCs cultured for 10 days in the presence or absence of 17-AAG, HSF1A or DMSO. Cells were transplanted with 2×10^5 freshly isolated congenic bone marrow cells (n=7-9; *P<0.05, **P<0.01).
We tested whether the positive effects of 17-AAG and HSF1A on HSC maintenance/expansion in vitro were mediated by Hsf1. Purified Hsf1-deficient and control HSCs were sorted from adult bone marrow (CD45.2^+) into 96-well plates (10/well) containing HSC medium supplemented with 17-AAG, HSF1A or vehicle (DMSO). HSCs were cultured for 10 days and competitively transplanted with 2×10^5 freshly isolated congenic bone marrow cells (CD45.1^+) into irradiated mice (CD45.1^+). Recipient mice were bled monthly to assess levels of donor-derived CD45.2^+ hematopoietic cells. […] However, the positive effect of 17-AAG and HSF1A was lost with Hsf1-deficient HSCs (FIG. 17).

C=CCNC1=C2C[C@@H](C)C[C@H](OC)[C@H](O)[C@@H](C)/C=C(\C)[C@H](OC(N)=O)[C@@H](OC)/C=C\C=C(/C)C(=O)NC(=CC1=O)C2=O [17-AAG, 17-N-Allylamino-17-demethoxygeldanamycin]
TMI fluorescence (unfolded protein abundance) vs vehicle (DMSO) controls [1]: less TMI fluorescence than controls
donor cell reconstitution vs recipients of freshly isolated HSCs ([2]; 10 HSCs cultured 10 days vs 10 freshly isolated HSCs): higher levels of donor cell reconstitution as compared to recipients of freshly isolated HSCs
donor cell reconstitution in primary recipients vs HSCs cultured without agent ([2]; 10 HSCs cultured 10 days, with 2x10^5 congenic bone marrow cells, 16 weeks): significantly higher levels of donor cell reconstitution as compared to controls
fraction of recipients with long-term multilineage reconstitution vs HSCs cultured without agent ([2]; primary and secondary transplants, 16 week, >0.5% B-, T-, myeloid cells): greater fraction
fraction of recipients with long-term multilineage reconstitution vs freshly isolated HSCs ([2]; secondary transplants): significantly greater fraction
donor cell reconstitution in secondary recipients vs HSCs cultured without agent ([2]; serial transplant, 3x10^6 cells/recipient): even more pronounced
Hsf1 abundance in the nucleus of cultured HSCs [3]: increase Hsf1 abundance in the nucleus
colonies in which GFP was detected [4]: 22/25
frequency of GFP-positive colonies (transduced HSCs) [4]: 88%
enrichment of CD150+CD48-LSK cells vs culture without agent [5]: ~4 fold
donor cell reconstitution vs controls (DMSO), control HSCs ([6]; 10 HSCs cultured 10 days): higher levels of donor cell reconstitution as compared to controls
positive effect on donor cell reconstitution with Hsf1-deficient HSCs ([6]; Hsf1-deficient HSCs cultured 10 days): lost
